Patent US4638005A, “Monoquaternized pyrazinium compounds and their use as electron carriers in photosynthetic processes” (The Coca-Cola Company, priority 1983, dated 1987)
Where a name gives a salt, the structure may show the parent alone.

Key:
[1] = target: T1, nitrogenase (Azotobacter vinelandii, UniProt P00459); test: Chloroplast-coupled evolution of hydrogen by nitrogenase in the absence of substrate; assay type: biochemical; conditions: for ACTIVITY RELATIVE TO FERREDOXIN (%) / ACTIVITY (nmoles H2 /mg protein/min): Table II, hydrogen evolution; for ACTIVITY (nmoles H2 /mg protein/min): no nitrogen or acetylene, synthetic carriers 2 mM, ferredoxin 0.2 mM
T1 construct: the nitrogenase sample was prepared from a culture of Azotobacter vinelandii; endogenous in cells; host or cells: Azotobacter vinelandii culture; French press lysate, 10,000 x g supernatant (crude)
Description: (§1) For the bioassay, the nitrogenase sample was prepared from a culture of Azotobacter vinelandii grown to a cell density of about 1 g/l. The cells harvested by centrifugation were broken in a French press, cell debris spun off at 10,000 XG for 1 hr., and the supernatant containing 40 mg/ml protein was used in the bioassay experiments. […] chloroplasts from spinach leaves as described by Benemann were also used. The synthetic carriers were tested in aqueous solutions at concentrations of 2 mM, while the standard, clostridial ferredoxin, was used in 0.2 mM aqueous solution. The concentrations of carriers in the assay mixtures were chosen so as to guarantee carrier saturation conditions. Thus, the observed differences in rates of ethylene production from the substrate acetylene were assigned directly to variations in the efficiency of electron transfer from the illuminated chloroplast to the nitrogenase. The results obtained for acetylene reduction (nitrogen fixation) using the pyrazinium compounds of Examples 1 through 42 are summarized in Table I and are expressed as nmoles of ethylene produced per mg protein per minute.
It has been recognized for sometime the connection existing between hydrogen metabolism and nitrogen fixation. […] When nitrogenase was purified extensively, as mentioned above, it became apparent that in addition to nitrogen, nitrogenase also catalyzed the reduction of protons. The evolution of hydrogen is particularly active in the absence of the normal substrates for nitrogenase (nitrogen, acetylene, cyanide, azide, etc.), and is dependent upon a strong reductant and adenosine triphosphate hydrolysis. Since hydrogen evolution is not inhibited by CO, but reduction of nitrogen and other substrates is, the reduction of protons presumably occurs at a site other than the site of nitrogen reduction, H. C. Winter, et. al., Ann Rev. Biochem, 45, 409 (1976). Accordingly, with the same bioassay system and with exclusion of nitrogen, and acetylene, the activity of the pyrazinium compounds to act as carriers for production of hydrogen has been determined.
The results of this study, which are summarized in Table II, indicate that the pyrazinium salts that mediate the reduction of acetylene with electrons from the photoexcited chloroplast, are also mediating the reduction of protons by the nitrogenase.

[2] = Polarographic half-wave potential (first wave reduction); assay type: physicochemical; conditions: 0.1 M phosphate buffer pH 7.55, 25° C.
Text: Sci., 65, 1471(1976). Therefore, it was of interest to measure polarographically the half-wave potentials of the several pyrazinium salts under consideration, to determine the possible effect of structure upon their redox potentials.

[3] = target: T1, nitrogenase; test: Chloroplast-coupled reduction of acetylene to ethylene by nitrogenase (electron carrier bioassay of Benemann); assay type: biochemical; conditions: for ACTIVITY RELATIVE TO FERREDOXIN (%) / ACTIVITY (nmoles C2 H4 /mg protein/min): Table I; for ACTIVITY RELATIVE TO FERREDOXIN (%): acetylene reduction to ethylene; for ACTIVITY (nmoles C2 H4 /mg protein/min): illuminated spinach chloroplasts, synthetic carriers 2 mM, clostridial ferredoxin 0.2 mM; for ETHYLENE FORMATION % Ferredoxin Activity: Table III ranking; for % FERREDOXIN ACTIVITY: Table IV, acetylene reduction
Description: The activity of the pyrazinium compounds as electron carriers in an illuminated photocouple process using isolated chloroplasts and the reductive enzyme catalyst nitrogenease has been determined using the bioassay of Benemann, et al., Proc. Natl. Acad. Sci. USA, 64, 1079(1969). In this method, the carrier activity is measured as a function of nitrogenase reduction of acetylene to ethylene, the rate of production of ethylene being the direct measurement.
as §1

T1 sequence (P00459 2-290 limits assumed): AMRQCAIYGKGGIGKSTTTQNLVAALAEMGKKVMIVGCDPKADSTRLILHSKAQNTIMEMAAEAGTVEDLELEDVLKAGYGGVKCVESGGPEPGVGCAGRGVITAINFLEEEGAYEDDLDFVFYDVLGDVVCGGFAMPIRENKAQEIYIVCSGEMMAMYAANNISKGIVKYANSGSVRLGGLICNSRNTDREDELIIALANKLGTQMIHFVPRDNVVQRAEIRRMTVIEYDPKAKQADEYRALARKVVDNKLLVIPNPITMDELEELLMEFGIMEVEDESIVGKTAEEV

Compound | ACTIVITY RELATIVE TO FERREDOXIN (%) [1] [%] | ACTIVITY (nmoles H2 /mg protein/min) [1] [nmoles H2 /mg protein/min] | E1/2 vs. SCE (mV) [2] [mV] | ACTIVITY RELATIVE TO FERREDOXIN (%) [3] [%] | ACTIVITY (nmoles C2 H4 /mg protein/min) [3] | ETHYLENE FORMATION % Ferredoxin Activity [3] [%] | % FERREDOXIN ACTIVITY [3] [%] | HYDROGEN EVOLUTION % Ferredoxin Activity ([1]; Table III ranking) [%]
C[n+]1ccnc(CC(C(O)CO)S(=O)(=O)[O-])c1 (stereo not shown) [Compound 4100] | 73 | 19.4 | -720 | 110 | 14.8 nmoles C2 H4 /mg protein/min | 110 | 110 | 
CC(O)c1c[n+](C)ccn1 (stereo not shown) [Compound 200, 1-Methyl-3-(1-hydroxyelhyl)pyrazinium iodide] | 64 | 17.2 | -699 | 17 | 2.3 nmoles C2 H4 /mg protein/min | 17 | 17 | 
CC(c1c[n+](C)ccn1)S(=O)(=O)[O-] (stereo not shown) [Compound 2400] | 128 | 34.1 | -701 | 105 | 14.2 nmoles C2 H4 /mg protein/min | 105 | 105 | 
CCC(Cc1c[n+](C)ccn1)S(=O)(=O)[O-] (stereo not shown) [Compound 1000] | 73 | 19.5 | -710 | 95 | 12.8 nmoles C2 H4 /mg protein/min | 95 | 95 | 
C[n+]1ccnc(CCO)c1.[I-] [Compound 300, 1-Methyl-3-(2-hydroxyethyl)pyrazinium iodide] | 30 | 8.1 | -683 | 41 | 5.5 nmoles C2 H4 /mg protein/min | 41 | 41 | 
COC(=O)c1c[n+](C)ccn1 [Compound 4500] | 0 | 0.0 | -390 | 0 | 0.0 nmoles C2 H4 /mg protein/min | 0 | 0 | 
Cc1c[n+](C)cc(CO)n1.[I-] [Compound 400, 1-Methyl-3-hydroxymethyl-5-methylpyrazinium iodide] | 74 | 19.7 | -738 | 26 | 3.5 nmoles C2 H4 /mg protein/min | 26 | 26 | 
C[n+]1ccnc(CCCCS(=O)(=O)[O-])c1 [Compound 1801] | 106 | 28.4 | -676 | 79 | 10.7 nmoles C2 H4 /mg protein/min | 79 | 79 | 
Cc1c[n+](C)cc(CS(=O)(=O)[O-])n1 [Compound 3000] | 124 | 33.1 | -738 | 99 | 13.4 nmoles C2 H4 /mg protein/min | 99 | 99 | 
Cc1c[n+](C)ccn1 [Compound 4300] | 14 | 3.7 | -696 | 5 | 0.7 nmoles C2 H4 /mg protein/min | 5 | 5 | 
C[n+]1ccnc(CS(C)(=O)=O)c1 [Compound 4700] | 5 | 1.4 | -611 | 5 | 0.7 nmoles C2 H4 /mg protein/min | 5 | 5 | 
C[n+]1ccnc(CCC(=O)O)c1.[I-] [Compound 3900, 1-Methyl-3-(2-carboxyethyl)pyrazinium iodide] | 45 | 11.9 |  | 27 | 3.7 nmoles C2 H4 /mg protein/min | 27 |  | 

The next lines start with the values.

ACTIVITY RELATIVE TO FERREDOXIN (%) [1] [%] | ACTIVITY (nmoles H2 /mg protein/min) [1] [nmoles H2 /mg protein/min] | E1/2 vs. SCE (mV) [2] [mV] | ACTIVITY RELATIVE TO FERREDOXIN (%) [3] [%] | ACTIVITY (nmoles C2 H4 /mg protein/min) [3] | ETHYLENE FORMATION % Ferredoxin Activity [3] [%] | % FERREDOXIN ACTIVITY [3] [%] | HYDROGEN EVOLUTION % Ferredoxin Activity ([1]; Table III ranking) [%] | Compound
129 | 34.4 | -683 | 124 | 16.7 nmoles C2 H4 /mg protein/min | 124 | 124 |  | C[n+]1ccnc(C(CCCS(=O)(=O)[O-])CCCS(=O)(=O)O)c1 (stereo not shown) [Compound 1800, 4-(1-Methyl-3-pyrazinyl)heptane-1,7-disulfonate sodium salt]
22 | 5.8 | -681 | 15 | 2.0 nmoles C2 H4 /mg protein/min | 15 | 15 |  | CC(=O)NCCc1c[n+](C)ccn1.[I-] [Compound 3800, 1-Methyl-3-(2-acetamidoethyl)pyrazinium iodide]
100 | 26.6 | -573 | 61 | 8.3 nmoles C2 H4 /mg protein/min | 61 | 61 |  | C[n+]1ccnc(S(=O)(=O)[O-])c1 [Compound 2000]
0 | 0.0 | -479 | 0 | 0.0 nmoles C2 H4 /mg protein/min | 0 | 0 |  | C[n+]1ccnc(C(N)=O)c1 [Compound 4600]
0 | 0.0 | -676 | 0 | 0.0 nmoles C2 H4 /mg protein/min | 0 | 0 |  | CCCCc1c[n+](C)ccn1 [Compound 5000]
 | 2.8 |  |  | 1.8 nmoles C2 H4 /mg protein/min | 13 | 13 | 10 | C=Cc1c[n+](C)ccn1 [Compound 5100]
154 | 41.2 | -730 | 98 | 13.2 nmoles C2 H4 /mg protein/min | 98 | 98 |  | C[n+]1ccnc(CCS(=O)(=O)[O-])c1 [Compound 2600]
62 | 16.6 | -715 | 33 | 4.5 nmoles C2 H4 /mg protein/min | 33 | 33 |  | C[n+]1ccnc(C(CC(O)CO)CC(O)CO)c1 (stereo not shown) [Compound 1700, 1-Methyl-3-[4-(1,2,6,7-tetrahydroxyheptyl)]pyrazinium iodide]
